Measured values taken from patent US20220370445A1, “METHODS FOR ADMINISTERING (R)-N-[4-(1,4,5,6-TETRAHYDRO-6-OXO-3-PYRIDAZINYL)PHENYL]ACETAMIDE” (ORION CORPORATION, priority 2019, published 2022).
Structures can show the parent of a compound that is named as a salt.

Columns and labels:
heart rate = assay: Effect of compound (I) alone or together with ivabradine on heart rate by oromucosal administration (telemetry); assay type: in vivo, Beagle dogs
Method: Male beagle dogs (n=3) were given a dose of compound (I) using oromucosal gel according to Formulation Example 3a alone (dosing period 1) or together with a dose of ivabradine using oromucosal gel according to Formulation Example 3c (dosing period 2). The dose of compound (I) was 18.5 μg/kg and the dose of ivabradine was 1 mg/kg (calculated as ivabradine base). Each dose was divided into two sites on gingival mucosa. The washout period between the dosing periods was at least 6 days. Heart rate of the animals was assesses at baseline and post-dosing using telemetry acquisition system.

[1] = in man; cited from earlier work
[2] = Bioavailability of compound (I) by ocular, intranasal or oromucosal administration vs i.v. in dogs; assay type: in vivo; details: Beagle dogs; for bioavailability: dog, plasma, n=6
Method: (§1) Bioavailability of compound (I) given by ocular (4 μg/kg), intranasal (4 μg/kg) or oromucosal dosing (5 μg/kg) was compared to 4 μg/kg intravenous (i.v.) administration in Beagle dogs.
The study was a crossover study with at least 6 days washout period between the treatment periods. The animals were fasted overnight before dosing by withdrawing the remaining feed (if any) at least 12 h before dosing. On dosing days, food was offered approximately at 4 h after dosing (after the 4 h blood sampling).
(§2) Composition of Formulation Example 1 was used for ocular administration, composition of Formulation Example 2 was used for intranasal administration and composition of Formulation Example 3 was used for oromucosal administration.
(§3) Ocular and intranasal doses were divided equally to both eyes or both nostrils. Oromucosal gel formulation was administered to buccal/gingival mucosa of the dog. The intravenous dose was administered in cephalic vein in slow i.v. bolus dosed within 30 seconds. Blood samples were collected into K2EDTA tubes over a 48 h period after each treatment at the following time points: predose, 2 min, 5 min, 10 min, 20 min, 30 min, 45 min, 1 h, 2 h, 4 h, 6 h, 8 h, 12 h, 24 h and 48 h post administration. Aliquots of plasma were prepared and stored frozen until analysis. Compound (I) concentration in plasma was determined using Liquid chromatography-triple quadrupole mass spectrometry. The lower limit of quantification for compound (I) in dog plasma was 0.1 ng/ml.

[3] = Bioavailability of compound (I) given by oropharyngeal aspiration to rats vs i.v.; assay type: in vivo, Male Sprague Dawley rats; details: for bioavailability: male, Sprague Dawley, rat, plasma, other: oropharyngeal aspiration, read-out: bioavailability of oropharyngeal administration
Method: Oropharyngeal aspiration administration has been developed as an alternative technique for the inhaled delivery of medicaments to the lungs and provides a means to mimic human lung exposure of medicaments by inhalation (Hulland, K. et al., American Journal of Respiratory and Critical Care Medicine 2016, 193:A5928 and Barbayianni, I. et al., Frontiers of Medicine, September 2018, Vol 5, Article 269, 1-6).
Bioavailability of compound (I) given by oropharyngeal aspiration (dosing 10 or 20 μg/kg) was compared to 10 μg/kg intravenous (i.v.) administration in Male Sprague Dawley rats.
Composition for oropharyngeal dosing was as follows:
The oropharyngeal dose was administered to animals which were lightly anaesthetized by isoflurane inhalation. The animals were placed on a vertical stand the top teeth hooked over a rubber band to open the mouth. The 100 μl dose was dispensed by positive displacement pipette at the back of the throat of the animal while holding the tongue to prevent swallowing and nose held to encourage breathing through the mouth for (at least) 3 breaths. The nose released but tongue continually held for an additional couple of breaths to ensure solution deposited in the lungs and not swallowed. All animals recovered consciousness post dose.
The intravenous dose was administered as a slow bolus injection over 30 seconds via the lateral tail vein.
Blood samples were collected into a K2EDTA tube such as to obtain a sample after 5 min, 15 min, 30 min, 1 h, 3 h, 5 h, 8 h, 12 h, 24 h and 48 h post administration.
Aliquots of plasma were prepared and stored frozen until analysis. Compound (I) concentration in plasma was determined using a liquid chromatography-tandem mass spectrometry (LC-MS/MS). The lower limit of quantification for compound (I) in rat plasma was 0.02 ng/ml.

[4] = Local tolerance of compound (I) given by ocular, intranasal or oromucosal administration to dogs; assay type: in vivo; details: any administration route (ocular, intranasal, oromucosal), Beagle dogs
Method: Experiment 1. Bioavailability and Local Tolerance of Compound (I) Given by Ocular, Intranasal or Oromucosal Administration to Dogs.
as §1, §2, §3

Row | Structure (SMILES) | heart rate after dosing (heart rate; oromucosal gel 18.5 μg/kg alone, male beagle dogs n=3, baseline 93±9 bpm) | elimination half-life [1] | bioavailability ([2]; other: intranasal (drops), 4 ug/kg, intranasal drops 4 μg/kg vs 4 μg/kg i.v.) | bioavailability ([2]; other: ocular (eye drops), 4 ug/kg, eye drops, ocular 4 μg/kg vs 4 μg/kg i.v.) | bioavailability ([2]; other: oromucosal (gel to buccal/gingival mucosa), 5 ug/kg, oromucosal gel 5 μg/kg vs 4 μg/kg i.v.) | absorption ([2]; ocular drops, intranasal drops or oromucosal gel) | bioavailability ([3]; oropharyngeal 0.01 mg/kg vs 0.01 mg/kg i.v.) | bioavailability ([3]; oropharyngeal 0.02 mg/kg vs 0.01 mg/kg i.v.) | absorption ([3]; oropharyngeal route) | irritation (local tolerance) [4] | prevention of heart rate increase induced by compound (I) (heart rate; oromucosal 1 mg/kg concurrent with compound (I) 18.5 μg/kg oromucosal, beagle dogs)
1 | CC(=O)Nc1ccc(C2=NNC(=O)C[C@H]2C)cc1 [Compound (I), (R)—N-[4-(1,4,5,6-tetrahydro-4-methyl-6-oxo-3-pyridazinyl)phenyl]acetamide] | 167±8 bpm | about 72 h | 82% | 67% | 78% | fast absorption comparable to intravenous administration | 94.9% | 97.1% | fast absorption comparable to intravenous administration | No significant irritation | –
2 | COc1cc2c(cc1OC)CC(=O)N(CCCN(C)C[C@H]1Cc3cc(OC)c(OC)cc31)CC2 [ivabradine hydrochloride, reference compound] | – | – | – | – | – | – | – | – | – | – | completely prevent the heart rate increase
